Results reported in publication PMC8776894 (Communications Biology, 2022).

Assays:
mice [1] = test: Acute toxicity test (single i.p. dose); type: in vivo, mouse
Description: To ensure that the safety of VK in vivo, acute toxicity test was performed. […] Clinical symptoms (temperature, change in skin, eye color change, general physique, body weight, diarrhea, sedation, and organ index) were recorded (Supplementary Table 3). […] Karyopyknosisa and the cellular swelling of the hepatocyte were moderate in the liver of mice treated with VK (96 and 384 mg/kg). […]
Acute toxicity test. Systemic acute toxicity test by peritoneal injection was performed according to the guideline provided by Center for Drug Evaluation and Research. In addition to the normal group, male mice were randomly divided into the treated groups received a single dose of 1.5 mg/kg, 6 mg/kg, 24 mg/kg, 96 mg/kg and 384 body weight of VK. Clinical signs of toxicity such as mortality, skin, eyes, fur, respiratory pattern , changes in general behavior and activity were individually observed. […]
day, the mice were anesthetized with 1.5% isoflurane in a mixture of 30% O2 and 69% N2O. Blood was collected from muse eyeballs and mixed with 3.2% sodium citrate at a v/v ratio of 1:9. Then, the blood was centrifuged at 3,000 rpm for 10 min.
The obtained plasma was analyzed using an automatic coagulation apparatus (CA1500).

[2] = system: neurons in brain of MCAO/R mice; test: NeuN immunohistochemistry; type: in vivo, mouse
mice [3] = test: Histological analysis (H&E) of organs in acute toxicity test; type: in vivo, mouse
Description: Histological analysis. Organs such as heart, liver, kidney, and brain were excised and fixed in 10% formaldehyde for histological analysis. Their organs were collected and fixed with 4% PFA for 12-18 h, followed by dehydrating using an automatic dehydrator (Leica ASP-300S, Germany) and embedding in paraffin. Then, each sample was coronally cut (4 µm) using a rotatory microtome (Leica RM2245, Germany). The […]
Primary culture of neuron and microglia. Primary cortical neurons (1.0 × 10^5 cells per well in poly-L-lysine-coated 24-well plate) were obtained from fetal C57BL/6 mice of embryonic day 16–17.5, as previously reported1. After careful removal of meninges, cortical tissues were digested in dulbecco's modified eagle medium (DMEM, Gibco) containing 0.05% trypsin (Gibco) at 37 °C for 20 min. DMEM containing 10% FBS (Gibco) was then added to terminate the digestion. The mixture was homogenized by pipetting 120 times and was subsequently filtered with a 100-μm cell strainer (Biologix) and centrifuged at 1000 rpm for 5 min. Then, the cells were collected and resuspended by DMEM supplemented with 10% FBS (Gibco) and penicillin-streptomycin (Gibco).
The suspension was seeded into 24-well plates (10^5 cells/ml), and 4 h later, the medium was changed with Neurobasal medium (Gibco) containing 1% […] and 2% B27 supplement. […]

rat CNS = settings: injected directly into the rat CNS; cited from earlier work
Description: B1R and B2R both belong to the G protein-coupled receptor (GPCR) family, with B2R mediating most of the physiological functions of kinin. It has been increasingly appreciated that BK and Lys-BK could act as a ‘double-edged sword’. By inhibiting oxidative stress and apoptosis, the systemic or local delivery of human TK protects against mouse myocardial I/R injury via B2R. Similarly, we described that the neuroprotective effects of VK on stroke in mice was inhibited by HOE140, the specific antagonist of B2R. We also conducted the autodock experiment to evaluate the combination of VK and B2R. The ...

HT22 cells (OGD/R) = test: Seahorse O2 consumption rate (OCR); type: cell-based, mouse; settings: dose-dependent
Description: HT22 cells were counted and plated at 8000 cells per well in a Seahorse XF96 Cell Culture Microplate for all experiments (Agilent). They were then treated with VK (0.0735 or 0.735 μM) for 24 h. […] Next, HT22 cells were washed after 24 h of incubation and were incubated in a 0% CO2 chamber at 37 °C for 1 h, before being placed into a Seahorse XFe96 Analyzer (Agilent). In OCR experiment, HT22 cells were treated, with 2 μM of oligomycin, 5 μM of FCCP, and 1 μM of rotenone and antimycin, respectively; to assess ECAR, they were treated with 1 μM of rotenone and antimycin and 50 mM of 2-DG. All OCR and ECAR data were normalized to cell number per well using WAVE (Agilent).

[4] = VK 1.5 mg/kg single i.p., n=5, 14 d observation
[5] = VK 6 mg/kg single i.p., n=6, 14 d observation
[6] = VK 24 mg/kg single i.p., n=6, 14 d observation
[7] = VK 96 mg/kg single i.p., n=6, 14 d observation
[8] = VK 384 mg/kg single i.p., n=6, 14 d observation

With “Gly-Arg-Pro-Hyp-Gly-Phe-Ser-Pro-Phe-Arg-Ile-Asp [VK, Vespakinin-M]” the Body weight (mice [1]; [4]) was “Normal”, the Breathing difficulty (mice [1]; [4]) was “Normal” and the “Change In skin” value (mice [1]; [4]) was “No effect”. For the same substance, the Coma (mice [1]; [4]) was “Normal”, the Death (mice [1]; [4]) was “Alive” and the Diarrhea (mice [1]; [4]) was “Normal”. For the same substance, the Drowsiness (mice [1]; [4]) was “Normal”, the Eye color change (mice [1]; [4]) was “No effect” and the Organ index (mice [1]; [4]) was “Normal”. The Sedation (mice [1]; [4]) was “Normal”, the Temperature (mice [1]; [4]) was “Normal” and the Tremor (mice [1]; [4]) was “Normal”. For the same substance, the Body weight (mice [1]; [5]) was “Normal”, the Breathing difficulty (mice [1]; [5]) was “Normal” and the “Change In skin” value (mice [1]; [5]) was “No effect”. For the same substance, the Coma (mice [1]; [5]) was “Normal”, the Death (mice [1]; [5]) was “Alive” and the Diarrhea (mice [1]; [5]) was “Normal”. The Drowsiness (mice [1]; [5]) was “Normal”, the Eye color change (mice [1]; [5]) was “No effect” and the Organ index (mice [1]; [5]) was “Normal”. The Sedation (mice [1]; [5]) was “Normal”, the Temperature (mice [1]; [5]) was “Normal” and the Tremor (mice [1]; [5]) was “Normal”. For the same substance, the Body weight (mice [1]; [6]) was “Decline”, the Breathing difficulty (mice [1]; [6]) was “Normal” and the “Change In skin” value (mice [1]; [6]) was “No effect”. The Coma (mice [1]; [6]) was “Normal”, the Death (mice [1]; [6]) was “Alive” and the Diarrhea (mice [1]; [6]) was “Normal”. For the same substance, the Drowsiness (mice [1]; [6]) was “Normal”, the Eye color change (mice [1]; [6]) was “No effect” and the Organ index (mice [1]; [6]) was “Normal”. The Sedation (mice [1]; [6]) was “Normal”, the Temperature (mice [1]; [6]) was “Normal” and the Tremor (mice [1]; [6]) was “Normal”. The Body weight (mice [1]; [7]) was “Decline”, the Breathing difficulty (mice [1]; [7]) was “Normal” and the “Change In skin” value (mice [1]; [7]) was “No effect”. For the same substance, the Coma (mice [1]; [7]) was “Normal”, the Death (mice [1]; [7]) was “Alive” and the Diarrhea (mice [1]; [7]) was “Normal”. The Drowsiness (mice [1]; [7]) was “Normal”, the Eye color change (mice [1]; [7]) was “No effect” and the Organ index (mice [1]; [7]) was “Normal”. The Sedation (mice [1]; [7]) was “Normal”, the Temperature (mice [1]; [7]) was “Normal” and the Tremor (mice [1]; [7]) was “Normal”. The liver index (mice [1]; VK 384 mg/kg single i.p.) was “increased liver index”, the Body weight (mice [1]; [8]) was “Decline” and the Breathing difficulty (mice [1]; [8]) was “Normal”. The “Change In skin” value (mice [1]; [8]) was “No effect”, the Coma (mice [1]; [8]) was “Normal” and the Death (mice [1]; [8]) was “Alive”. For the same substance, the Diarrhea (mice [1]; [8]) was “Normal”, the Drowsiness (mice [1]; [8]) was “Normal” and the Eye color change (mice [1]; [8]) was “No effect”. The Organ index (mice [1]; [8]) was “Increased”, the Sedation (mice [1]; [8]) was “Normal” and the Temperature (mice [1]; [8]) was “Normal”. For the same substance, the Tremor (mice [1]; [8]) was “Normal”, the Body weight (mice [1]; VK 24, 96 and 384 mg/kg single i.p.) was “continued to lose weight until day 5” and the “index of brain, myocardium and kidney” value (mice [1]; all treatment dose groups (1.5-384 mg/kg single i.p.)) was “no difference”. For the same substance, the “safe multiple of the effective dose (150 μg/kg)” value (mice [1]; mice) was 640 times, the “safe doses of VK in acute toxicity tests” value (mice [1]; mice, single i.p. dose) was < 96 mg/kg and the mortality (mice [1]; single i.p. dose 1.5, 6, 24, 96 and 384 mg/kg, observed for 24 h) was “no mortality was observed”. The “number of NeuN-positive cells” value [2] was “greater than that in the vehicle-treated group”, the “karyopyknosis and cellular swelling of hepatocytes in liver” value (mice [3]; VK 96 and 384 mg/kg single i.p.) was “moderate” and the “histopathology of brain, liver and kidney vs control” value (mice [3]; all treated groups after 14 days, H&E) was “no changes at the cellular level”. For the same substance, the “anti-nociceptive potency relative to BK” value (rat CNS) was “approximately three times more potent” and the “mitochondrial oxygen consumption rate in neurons” value (HT22 cells (OGD/R)) was “accelerated the mitochondrial oxygen consumption rate”.
